Columns and labels:
MDCK cells [1] = test system: MDCK cells
Description: Ethylenediaminetetraacetic acid (EDTA) is applied to the cells. EDTA is a calcium chelator that removes Ca^2+ needed for integrin proteins to maintain cell adhesion.
FIG. 6b is a data plot showing mean normalized impedances for different regions of the cell culture over time as specified in the map 601. FIG. 6cc are histograms of the normalized impedance values before, during, and after a washout of EDTA across the array.

MDCK cells [2] = test: Wound healing assay: electrochemically patterned wound, regrowth measured by impedance mapping; format: cell-based, Canine; conditions: 1 μM, over 72 hours, control culture shows regrowth
Description: This example describes a combined application of both the cross-electrode impedance mapping and cell patterning is a wound healing assay.
These assays gauge cell growth rate and metabolism and can be useful for screening drugs affecting these parameters. Compared to the electrochemical patterning described herein, other tools mechanically generate a wound in a cell culture via a mechanical scratch which is both difficult to control and limiting in terms of wound pattern.
In this example, a wound is made in MDCK cells and then the growth is mapped in real-time. […] These patterns were defined by applying electrode currents of −10 nA for 40 s versus a Ag/AgCl pseudo reference electrode. The regrowth of the culture was then measured using the impedance mapping method.

SMILES	time course of cell detachment with EDTA applied (MDCK cells [1]; 5 mM EDTA application, normalized impedance maps)	time course of cell re-attachment after EDTA washout (MDCK cells [1]; EDTA washed out by adding normal culture media)	regrowth of wounded cell culture (normalized cross-electrode impedance maps) (MDCK cells [2])
O=C(O)CN(CCN(CC(=O)O)CC(=O)O)CC(=O)O [EDTA, Ethylenediaminetetraacetic acid]	~50 min	~200 min	–
C=C1[C@@H](C)[C@H]2[C@H](Cc3ccccc3)NC(=O)[C@]23OC(=O)/C=C/[C@H](O)CCC[C@@H](C)C/C=C/[C@H]3[C@@H]1O [cytochalasin B]	–	–	very little growth

— patent US11747321B2, “Apparatuses for cell mapping via impedance measurements and methods to operate the same” (President and Fellows of Harvard College, priority 2020, dated 2023)
